The record followed here is ChEMBL document CHEMBL1201862, “PubChem BioAssay data set” (2004).

Test systems include ACHN; COLO 205; HCC 2998; HCT-116; HCT-15; K562; LOX IMVI; M14; MDA-MB-231; MDA-MB-435; MOLT-4; NCI-H226; NCI-H460; OVCAR-3; OVCAR-5; RPMI-8226; SF-295; SF-539; SW-620; T47D.
Common to all, as to test: DTP human tumour cell line panel, 48 h

SMILES strings stand for the structures.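 Cells were grown in 96-well plates and exposed to each compound for 48 hours at five concentrations; endpoints were interpolated linearly between bracketing concentrations, or set to the highest concentration if not reached. The concentration for 50% growth inhibition is given as GI50.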 Activity calls are given as the source filed them. Rule as the data show it: active = GI50 up to about 1.1 µM and inactive = higher.

On to `Nc1cccc2cc(Cl)cnc12`, for which the GI50 (usually the concentration that inhibits growth by half) in the experiment with ACHN is > 100 µM (inactive); with COLO 205 it was > 100 µM (inactive); in the experiment with HCC 2998, > 100 µM (inactive); with HCT-116, > 100 µM (inactive); in the experiment with HCT-15, greater than 100 µM; in the experiment with K562, > 100 µM (inactive). The GI50 with LOX IMVI was > 100 µM (inactive); in the experiment with M14, > 100 µM (inactive); in the experiment on MDA-MB-231, > 100 µM (inactive); in the experiment on MDA-MB-435, > 100 µM (inactive); with MOLT-4 it was 37.2 µM (inactive); in the experiment on NCI-H226, > 100 µM (inactive). The GI50 with NCI-H460 was > 100 µM (inactive); with OVCAR-3, 96.8 µM (inactive); in the experiment on OVCAR-5 it was > 100 µM (inactive); in the experiment on RPMI-8226 it was > 100 µM (inactive); in the experiment with SF-295, > 100 µM (inactive); with SF-539, > 100 µM (inactive). Further, the results for the GI50 in the experiment on SW-620 and in the experiment with T47D were > 100 µM (inactive) and 15.2 µM (inactive), respectively.

As for `NNC(=O)CCSc1ccccc1`, the GI50 in the experiment with ACHN is > 100 µM (inactive); in the experiment on COLO 205, > 100 µM (inactive); in the experiment on HCC 2998 it was > 100 µM (inactive); in the experiment with HCT-116 it was > 100 µM (inactive); in the experiment on HCT-15 it was greater than 100 µM; with K562 it was > 100 µM (inactive). Moreover, the GI50 in the experiment with LOX IMVI, with M14, in the experiment with MDA-MB-231, in the experiment on MDA-MB-435, in the experiment with MOLT-4 and in the experiment with NCI-H226 was > 100 µM (inactive) throughout. The GI50 in the experiment on NCI-H460, in the experiment with OVCAR-3, with OVCAR-5, with RPMI-8226, in the experiment on SF-295 and with SF-539 was > 100 µM (inactive) throughout. Besides, the GI50 in the experiment on SW-620 and in the experiment on T47D was > 100 µM (inactive) each time.

Turning to `Brc1ccc(/N=C/C=C(\Nc2ccc(Br)cc2)C23CC4CC(CC(C4)C2)C3)cc1`, the GI50 is 11.1 µM (inactive) in the experiment on ACHN; 9.62 µM (inactive) in the experiment with COLO 205; 16 µM (inactive) with HCC 2998; 9.04 µM (inactive) in the experiment on HCT-116; 6.34 µM in the experiment on HCT-15; 4.5 µM (inactive) with K562. For the same compound, the GI50 with LOX IMVI is 1.91 µM (inactive); in the experiment on M14 it was 9.75 µM (inactive); in the experiment with MDA-MB-231, 15.6 µM (inactive); with MDA-MB-435 it was 5.11 µM (inactive); in the experiment on MOLT-4, 6.07 µM (inactive); in the experiment on NCI-H226, 97.3 µM (inactive). The GI50 was 6.12 µM (inactive) with NCI-H460; 14.1 µM (inactive) in the experiment on OVCAR-3; 14.7 µM (inactive) in the experiment with OVCAR-5; 14.7 µM (inactive) with RPMI-8226; 10 µM (inactive) in the experiment on SF-295; 20 µM (inactive) in the experiment with SF-539. Besides, the GI50 was 18.1 µM (inactive) in the experiment with SW-620 and 8.07 µM (inactive) with T47D.

In the case of `C1CN(c2nnc(N3CCC3)nn2)C1`, the GI50 with ACHN was > 69.8 µM (inactive); with COLO 205, 60.7 µM (inactive); in the experiment with HCC 2998, > 100 µM (inactive); in the experiment with HCT-116 it was 84.5 µM (inactive); in the experiment with HCT-15, greater than 100 µM; in the experiment with K562, 23.6 µM (inactive). Besides, the GI50 in the experiment on LOX IMVI was 17.8 µM (inactive); with M14 it was 36.1 µM (inactive); in the experiment on MDA-MB-231 it was > 42.6 µM (inactive); in the experiment on MDA-MB-435, 18.4 µM (inactive); in the experiment on MOLT-4, > 100 µM (inactive); with NCI-H226, > 96.6 µM (inactive). Further, the GI50 in the experiment on NCI-H460 is 67.9 µM (inactive); with OVCAR-3, > 92.7 µM (inactive); with OVCAR-5, 41.2 µM (inactive); in the experiment with RPMI-8226, > 100 µM (inactive); with SF-295, 37.3 µM (inactive); in the experiment with SF-539, 44.8 µM (inactive). Besides, the figures for the GI50 with SW-620 and in the experiment on T47D were 32.3 µM (inactive) and > 100 µM (inactive), respectively.

With `NCC(=O)C(O)C(O)C(O)CO` (stereo not given), the GI50 in the experiment on ACHN is > 100 µM (inactive); with COLO 205, > 100 µM (inactive); in the experiment on HCC 2998, > 100 µM (inactive); in the experiment with HCT-116 it was > 100 µM (inactive); in the experiment on HCT-15, greater than 100 µM; in the experiment with K562 it was > 100 µM (inactive). Further, the GI50 in the experiment with LOX IMVI, in the experiment with M14, in the experiment on MDA-MB-231, in the experiment with MDA-MB-435, in the experiment on MOLT-4 and in the experiment on NCI-H226 was > 100 µM (inactive) each time. The GI50 in the experiment on NCI-H460, with OVCAR-3, in the experiment with OVCAR-5, in the experiment on RPMI-8226, with SF-295 and in the experiment on SF-539 was > 100 µM (inactive) in each case. Besides, the GI50 with SW-620 and in the experiment on T47D was > 100 µM (inactive) in each case.

Consider `Cc1cc(NCCCCCCCCCC[n+]2c(C)cc(N)c3ccccc32)c2ccccc2n1`, for which the GI50 in the experiment with ACHN was 2.31 µM (inactive); with COLO 205 it was 0.346 µM (active); in the experiment with HCC 2998 it was 0.675 µM (active); in the experiment with HCT-116, 0.209 µM (active); in the experiment on HCT-15 it was 3.95 µM; in the experiment with K562, 0.0409 µM (active). Also, the GI50 in the experiment with LOX IMVI is 0.546 µM (active); in the experiment on M14 it was 2.04 µM (inactive); with MDA-MB-231, 0.652 µM (active); in the experiment with MDA-MB-435 it was 1.01 µM (active); with MOLT-4, 0.322 µM (active); with NCI-H226 it was 2.67 µM (inactive). The GI50 is 0.0638 µM (active) with NCI-H460; 0.975 µM (active) with OVCAR-3; 4.2 µM (inactive) in the experiment on OVCAR-5; 0.029 µM (active) with RPMI-8226; 0.861 µM (active) in the experiment on SF-295; 1.82 µM (inactive) in the experiment on SF-539. In addition, the GI50 in the experiment on SW-620 is 1.84 µM (inactive); in the experiment with T47D, 0.333 µM (active).

`N=C1/C(=C/c2ccco2)C(=O)N=C2SC=NN12`: the GI50 is > 100 µM (inactive) with ACHN; > 100 µM (inactive) in the experiment on COLO 205; > 100 µM (inactive) in the experiment with HCC 2998; > 100 µM (inactive) with HCT-116; greater than 100 µM in the experiment on HCT-15; > 100 µM (inactive) in the experiment on K562. For the same compound, the GI50 with LOX IMVI, with M14, in the experiment with MDA-MB-231, in the experiment with MDA-MB-435, in the experiment on MOLT-4 and in the experiment with NCI-H226 was > 100 µM (inactive) each time. For the same compound, the GI50 in the experiment on NCI-H460, with OVCAR-3, with OVCAR-5, with RPMI-8226, in the experiment with SF-295 and in the experiment on SF-539 was > 100 µM (inactive) in each case. The GI50 in the experiment with SW-620 and with T47D was > 100 µM (inactive) each time.

In the case of `CSc1nc(SC)c2ncn(C3CC(Oc4ccc(C)cc4)C(COc4ccc(C)cc4)O3)c2n1` (stereo not given), the GI50 in the experiment on ACHN was > 100 µM (inactive); in the experiment on COLO 205 it was > 100 µM (inactive); in the experiment on HCC 2998, > 100 µM (inactive); in the experiment on HCT-116, > 100 µM (inactive); in the experiment with HCT-15 it was greater than 100 µM; with LOX IMVI, > 100 µM (inactive). In addition, the GI50 with M14, in the experiment with MDA-MB-231, in the experiment with MDA-MB-435, in the experiment on NCI-H226, in the experiment with NCI-H460 and with OVCAR-3 was > 100 µM (inactive) each time. Besides, the GI50 was > 100 µM (inactive) with OVCAR-5; 8.71 µM (inactive) in the experiment with RPMI-8226; > 100 µM (inactive) in the experiment on SF-295; > 100 µM (inactive) in the experiment on SF-539; > 100 µM (inactive) in the experiment with SW-620; 63.1 µM (inactive) with T47D.

`COc1ccc2c(c1)[C@@]13CCN4CC5=CCO[C@H]6CC(=O)N2[C@H]1[C@H]6[C@H]5C[C@H]43`: the GI50 in the experiment with ACHN was > 100 µM (inactive); with COLO 205 it was 84.9 µM (inactive); in the experiment with HCC 2998, > 100 µM (inactive); in the experiment on HCT-116, > 100 µM (inactive); with HCT-15, greater than 100 µM; with LOX IMVI, > 100 µM (inactive). Moreover, the GI50 in the experiment with M14 was > 100 µM (inactive); in the experiment on MDA-MB-231, > 100 µM (inactive); in the experiment on MDA-MB-435, > 100 µM (inactive); with MOLT-4, 18.6 µM (inactive); with NCI-H226, 0.178 µM (active); in the experiment on NCI-H460 it was > 100 µM (inactive). Further, the GI50 in the experiment on OVCAR-3 was > 100 µM (inactive); in the experiment on OVCAR-5, > 100 µM (inactive); with RPMI-8226 it was > 100 µM (inactive); in the experiment with SF-295 it was 70 µM (inactive); in the experiment on SF-539 it was > 100 µM (inactive); with SW-620, > 100 µM (inactive). Further, in the experiment on T47D, the GI50 was > 100 µM (inactive).

On to `C=C(c1ccc2[nH]c(NC(=O)OC)nc2c1)c1cccs1`, for which the GI50 in the experiment on ACHN was 0.06 µM (active); with COLO 205, 0.129 µM (active); with HCC 2998, 0.217 µM (active); with HCT-116 it was 0.0675 µM (active); in the experiment on HCT-15, less than 0.0349 µM; with K562, < 0.0456 µM (active). The GI50 in the experiment on LOX IMVI is 0.0986 µM (active); in the experiment with M14, 0.247 µM (active); with MDA-MB-231, 0.365 µM (active); with MDA-MB-435 it was 0.0259 µM (active); in the experiment on NCI-H226, 0.22 µM (active); in the experiment with NCI-H460 it was 0.118 µM (active). Besides, the GI50 was 0.0379 µM (active) in the experiment with OVCAR-3; 2.1 µM (inactive) in the experiment on OVCAR-5; 0.316 µM (active) in the experiment with RPMI-8226; 0.051 µM (active) in the experiment on SF-295; 0.0693 µM (active) in the experiment with SF-539; 0.354 µM (active) in the experiment on T47D.
